Measured values from patent US4405743A, “Pyrazolylpyrimidine derivatives” (Hokko Chemical Industry Co., Ltd., priority 1981, dated 1983).
In brackets after ≈: the same amount, converted by molar mass. Read-outs that look alike come from different tables or passages of the source.

Legend:
Pyricularia oryzae [1] = assay type: in vivo, Pyricularia oryzae on rice plant (variety: Asahi); details: rice blast, prevention; 200 ppm; 5 days after inoculation
rice plant [2] = details: blast prevention test, 200 ppm
Cochliobolus miyabeanus [3] = experiment: Effect of controlling rice brown spot, Experimental Example 3; assay type: in vivo, Cochliobolus miyabeanus on rice plant (variety: Asahi); details: sprayed liquid 500 ppm, 5 days after inoculation
Sphaerotheca friliginea = experiment: Effect of controlling cucumber powdery mildew, Experimental Example 4; assay type: in vivo; details: sprayed liquid 200 ppm, 10 days after inoculation
Description: 10 ml of each of test liquids diluted to a predetermined concentration was sprayed over seedlings of a cucumber plant (variety: Sagami Hanpaku) grown up to the first leaf stage which has been soil cultured in an unglazed pot with a diameter of 9 cm in a green house. After allowing to stand overnight, the seedlings were sprayed for inoculation with a spore suspension of Sphaerotheca friliginea. Ten days after the inoculation, the rate of a lesion area (%) was checked and a control value was evaluated from the following equation. The degree of chemical injury against a cucumber plant was determined in the same manner as in Experimental Example.

cucumber plant = details: in vivo
Pyricularia oryzae [4] = assay type: in vivo, Pyricularia oryzae on rice plant (variety: Asahi); details: rice blast, curative treatment; sprayed liquid 200 ppm; 5 days after spraying
rice plant [5] = details: blast curative test, 200 ppm
rice plant [6] = details: in vivo
Cochliobolus miyabeanus [7] = experiment: Antimicrobial activity (mycelium growth inhibition, PDA medium); assay type: cell-based; details: Bipolaris oryzae, read-out: ED50 value
Pyricularia oryzae [8] = experiment: microbe, parasite or virus in culture; assay type: cell-based; details: read-out: ED50 value
Endothia parasitica = experiment: Antimicrobial activity (mycelium growth inhibition, PDA medium); assay type: cell-based; details: Cryphonectria parasitica, 24° C., read-out: ED50 value
Description: (§1) Experimental Example 5 (Test for Antimicrobial Activity Against Various Plant Phathogenic Fungi)
(§2) 1 ml of an acetone solution of each of test compounds and 20 ml of the PDA medium (50° C.) to prepare media containing the chemical in different concentrations, followed by charging into a petri dish with a diameter of 9 cm where it was solidified flat. On the central portion of the chemical-containing medium was inoculated a fungus-containing medium a piece of ager black-containing mycelia which was obtained by punching by means of a cork borer the tip portion of mycelia of each test fungus which had been cultured in advance in the PDA medium, followed by cultivating at 24° C. Two to six days after the cultivation, the diameter of the mycelia was measured and mycelium growth inhibiting rate was calculated from a comparison with that of a non-treated plot. The mycelium growth inhibiting rate was plotted on a logarithmic probability paper to determine an ED50 value.

Diaporthe citri = experiment: as above; assay type: cell-based; details: 24° C., read-out: ED50 value
Description: as §1, §2

Mycosphaerella melonis = experiment: as above; assay type: cell-based; details: 24° C., read-out: ED50 value
Description: as §1, §2

Phizoctonia solani = experiment: as above; assay type: cell-based; details: 24° C., read-out: ED50 value
Description: as §1, §2

Botrytis cinerea = experiment: as above; assay type: cell-based; details: 24° C., read-out: ED50 value
Description: as §1, §2

Curvularia sp. = experiment: as above; assay type: cell-based; details: 24° C., read-out: ED50 value
Description: as §1, §2

Alternaria padwikii = experiment: as above; assay type: cell-based; details: 24° C., read-out: ED50 value
Description: as §1, §2

Fusarium nivale = experiment: as above; assay type: cell-based; details: Microdochium nivale, 24° C., read-out: ED50 value
Description: as §1, §2

Glomerella cingulata = experiment: as above; assay type: cell-based; details: Colletotrichum gloeosporioides, 24° C., read-out: ED50 value
Description: as §1, §2

Pellicularia sasakii = experiment: as above; assay type: cell-based; details: 24° C., read-out: ED50 value
Description: as §1, §2

Phoma lingam = experiment: as above; assay type: cell-based; details: Plenodomus lingam, 24° C., read-out: ED50 value
Description: as §1, §2

Penicillium digitatum = experiment: as above; assay type: cell-based; details: 24° C., read-out: ED50 value
Description: as §1, §2

[9] = tested on: Helminthosporium gramineum; experiment: as above; assay type: cell-based; details: 24° C., read-out: ED50 value
Description: as §1, §2

Sclerotinia sclerotiorum = experiment: as above; assay type: cell-based; details: 24° C., read-out: ED50 value
Description: as §1, §2

Sclerotinia fructigena = experiment: as above; assay type: cell-based; details: 24° C., read-out: ED50 value
Description: as §1, §2

Compound | Control Value (Pyricularia oryzae [1]) | Degree of chemical injury (rice plant [2]) | Control Value (Cochliobolus miyabeanus [3]) | Control Value (Sphaerotheca friliginea) | Degree of chemical injury (cucumber plant) | Control Value (Pyricularia oryzae [4]) | Degree of chemical injury (rice plant [5]) | Degree of chemical injury (rice plant [6]) | further results
Cc1cc(C)n(-c2nc(C)c(C)c(Sc3ccccc3)n2)n1 [Compound 39] | 100% | 0 | 78% | 100% | 0 | 100% | 0 | 0 | –
CCCc1c(C)nc(-n2nc(C)cc2C)nc1OC [Compound 40] | 100% | 0 | 81% | 97% | 0 | 100% | 0 | 0 | –
CCCCc1c(C)nc(-n2nc(C)cc2C)nc1OCC [Compound 41] | 100% | 0 | 100% | 94% | 0 | 100% | 0 | 0 | IC50 (Cochliobolus miyabeanus [7]): 1.4 µg/mL (≈ 4.85 µM); IC50 (Pyricularia oryzae [8]): 0.01 µg/mL (≈ 0.0347 µM); IC50 (Endothia parasitica): 4.6 µg/mL (≈ 16 µM); IC50 (Diaporthe citri): 2 µg/mL (≈ 6.93 µM); IC50 (Mycosphaerella melonis): 0.7 µg/mL (≈ 2.43 µM); IC50 (Phizoctonia solani): 1.4 µg/mL (≈ 4.85 µM); IC50 (Botrytis cinerea): 4.5 µg/mL (≈ 15.6 µM); IC50 (Curvularia sp.): 1.6 µg/mL (≈ 5.55 µM); IC50 (Alternaria padwikii): 0.7 µg/mL (≈ 2.43 µM); IC50 (Fusarium nivale): 0.2 µg/mL (≈ 0.693 µM); IC50 (Glomerella cingulata): 4.1 µg/mL (≈ 14.2 µM); IC50 (Pellicularia sasakii): 1.1 µg/mL (≈ 3.81 µM); IC50 (Phoma lingam): 2.6 µg/mL (≈ 9.02 µM); IC50 (Penicillium digitatum): 1.1 µg/mL (≈ 3.81 µM); IC50 [9]: 2.8 µg/mL (≈ 9.71 µM); IC50 (Sclerotinia sclerotiorum): 3.8 µg/mL (≈ 13.2 µM); IC50 (Sclerotinia fructigena): 1.5 µg/mL (≈ 5.2 µM)
CCCCc1c(C)nc(-n2nc(C)cc2C)nc1Oc1ccccc1 [Compound 43] | 100% | 0 | 94% | 82% | 0 | 86% | 0 | 0 | –
CCCCc1c(C)nc(-n2nc(C)cc2C)nc1Sc1ccccc1 [Compound 44] | 100% | 0 | 91% | 94% | 0 | 92% | 0 | 0 | –
CCCCCCc1cc(SCC)nc(-n2nc(C)cc2C)n1 [Compound 45] | 92% | 0 | 88% | 91% | 0 | 90% | 0 | 0 | –
CCCCCCc1cc(Sc2ccccc2)nc(-n2nc(C)cc2C)n1 [Compound 46] | 84% | 0 | 99% | 83% | 0 | 99% | 0 | 0 | –
CCCCCCc1cc(Oc2ccc(Cl)cc2)nc(-n2nc(C)cc2C)n1 [Compound 47] | 100% | 0 | 90% | 79% | 0 | 100% | 0 | 0 | –
